Data published in US5518912A, “Endopeptidase” (priority 1993, dated 1996).
Blank lines part the entries; values can stand above or below the molecule they belong to. Positions of bridges follow the written chain, without caps; N, C: chain ends. Non-standard residues stand in square brackets, D forms with d. Residues, ends and D or L forms follow the SMILES beside them. *: point of attachment. Ileψ(thiazoline)Cys = CC[C@H](C)[C@H](N)C1=N[C@H](C(=O)*)CS1; Sta = CC(C)C[C@H](N)[C@@H](O)CC(=O)O; dOrn = NCCC[C@@H](N)C(=O)O; Isovaleryl = CC(C)CC(=O)*

Columns and labels:
[1] = test system: endopeptidase from the skin of Xenopus laevis; assay: Inhibitor studies: enzyme preincubated with inhibitor, then cleavage of substrate peptide read on acid gel; assay type: biochemical; conditions: for % INHIBITION: substrate magainin 2-amide; for effect of proteinase inhibitor on enzyme activity (in words): summary of Table 2
Procedure: Reaction buffer consisted of 20 mM Na phosphate, 50 mM NaCl final concentration. After quenching the reaction with 0.5 volume of glacial acetic acid, a 15 μl aliquot of each reaction was analyzed by acidic gel electrophoresis. […]
Inhibitor studies were conducted in the same fashion; the only difference involved first incubating the enzyme with each inhibitor tested at a particular concentration in the absence of any substrate for one hour at room temperature. Substrate was then added to the reaction and allowed to incubate for an additional hour at room temperature.
ACIDIC GEL ELECTROPHORESIS--Acidic gels (pH 4) were prepared and run as originally described (Gabriel, 1971) with several modifications. The gel solution consisted of a final concentration of 15% (v/v) acrylamide (acrylamide:bisacrylamide/37.5:1), 88 mM KOH, 3% (v/v) glacial acetic acid, 0.75% (v/v) […] (Temed), 0.375% ammonium persulfate (30 mg/ml). Before loading samples, 0.5 volume of glacial acetic acid was added, as well as 0.5 volume of 0.1% Pyronin Y loading dye. MINI PROTEAN gel apparatus (Biorad, Richmond, Calif.) were used and gels electrophoresed at 200 volts in running buffer containing 0.035M β-alanine and glacial acetic acid (2.45 ml/l), pH 4.0. Gels were stained in 0.1% (w/v) Coomassie Brilliant Blue R-250 (Sigma), 50% methanol, 50% water and destained in distilled water.

[2] = test system: endopeptidase from the skin of Xenopus laevis; assay: Substrate specificity analyses: cleavage of peptides and analogues by the purified endopeptidase (acid gel, HPLC/amino acid analysis); assay type: biochemical; conditions: 50 μg peptide, one hour, room temperature
Procedure: ENZYME ASSAYS--Activity was monitored by incubating 0.1-10 μl of each chromatographic fraction with 50 μg of magainin 2-amide substrate in a total volume of 100 μl for one hour at room temperature. Reaction buffer consisted of 20 mM Na phosphate, 50 mM NaCl final concentration. After quenching the reaction with 0.5 volume of glacial acetic acid, a 15 μl aliquot of each reaction was analyzed by acidic gel electrophoresis. One unit of enzyme activity is defined as the amount of enzyme required to convert 25 μg of magainin 2-amide substrate into half-peptide products under the above conditions.
Substrate specificity analyses were carried out as described above except that 50 μg of each substrate analogue under investigation was substituted for magainin 2-amide in the incubation at the same concentration.
Before loading samples, 0.5 volume of glacial acetic acid was added, as well as 0.5 volume of 0.1% Pyronin Y loading dye. […]
100 μl reactions were injected into a Beckman HPLC System Gold instrument and run on a C18 reversed phase column (4.6×220 mm, Aquapore OD-300, Applied Biosystems, Foster City, Calif.). […] Portions of the resuspended sample were injected into an amino acid analyzer with automated hydrolysis (model 420/130, Applied Biosystems, Foster City, Calif.), and numerical calculations for specific amino acids were determined using an Applied Biosystems 920A data analysis module.

[3] = inhibitor 1 mM, one unit endopeptidase preincubated one hour

Molecule: c1cnc2c(c1)ccc1cccnc12 [1,10-Phenanthroline, 1,10-phenanthroline]
% INHIBITION ([1]; inhibitor 0.2 mM): 70%
% INHIBITION ([1]; inhibitor 2 mM): 100%
% INHIBITION ([1]; inhibitor 20 mM): 100%
effect of proteinase inhibitor on enzyme activity (in words) [1]: substantially inhibited enzyme activity

Molecule: CC[C@H](C)[C@H](N)C1=N[C@H](C(=O)N[C@@H](CC(C)C)C(=O)N[C@H](CCC(=O)O)C(=O)N[C@H](C(=O)N[C@H]2CCCCNC(=O)[C@H](CC(N)=O)NC(=O)[C@@H](CC(=O)O)NC(=O)[C@H](Cc3cnc[nH]3)NC(=O)[C@@H](Cc3ccccc3)NC(=O)[C@H]([C@@H](C)CC)NC(=O)[C@@H](CCCN)NC2=O)[C@@H](C)CC)CS1 [Bacitracin, bacitracin] ({Ileψ(thiazoline)Cys}-L[dE]IK[dOrn]I[dF]H[dD]N; lactam 4-C)
% INHIBITION ([1]; inhibitor 1 mg/ml): 0%
effect of proteinase inhibitor on enzyme activity (in words) [1]: no effect on endoproteolysis

Molecule: CC(C)C[C@H](NC(=O)[C@H]1O[C@@H]1C(=O)O)C(=O)NCCCCN=C(N)N [E-64, N-[N-(L-3-trans-carboxyoxiran-2-carbonyl)-L-leucyl]-agmatine]
% INHIBITION ([1]; inhibitor 300 μM): 0%
effect of proteinase inhibitor on enzyme activity (in words) [1]: no effect on enzyme activity

% INHIBITION ([1]; inhibitor 0.5 mM): 25%
% INHIBITION ([1]; inhibitor 5 mM): 25%
% INHIBITION ([1]; inhibitor 50 mM): 50%
effect of proteinase inhibitor on enzyme activity (in words) [1]: substantially inhibited enzyme activity
Molecule: O=C(O)CN(CCN(CC(=O)O)CC(=O)O)CC(=O)O [EDTA, ethylenediaminetetraacetic acid]

Molecule: CC(=O)N[C@@H](CC(C)C)C(=O)N[C@@H](CC(C)C)C(=O)N[C@H](C=O)CCCNC(=N)N [Leupeptin, leupeptin]
% INHIBITION [1, 3]: 0%
effect of proteinase inhibitor on enzyme activity (in words) [1]: no effect on enzyme activity

Molecule: O=S(=O)(F)Cc1ccccc1 [PMSF, phenylmethanesulfonyl fluoride]
% INHIBITION ([1]; inhibitor 10 mM): 0%
effect of proteinase inhibitor on enzyme activity (in words) [1]: no effect on enzyme activity

% INHIBITION ([1]; inhibitor 100 μm, one unit endopeptidase preincubated one hour): 0%
effect of proteinase inhibitor on enzyme activity (in words) [1]: no effect on enzyme activity
Molecule: CC(C)CC(=O)N[C@H](C(=O)N[C@H](C(=O)N[C@@H](CC(C)C)[C@@H](O)CC(=O)N[C@@H](C)C(=O)N[C@@H](CC(C)C)[C@@H](O)CC(=O)O)C(C)C)C(C)C [Pepstatin, pepstatin] (Isovaleryl-VV[Sta]A[Sta]-OH)

% INHIBITION ([1]; inhibitor 1 μM): 0%
% INHIBITION ([1]; inhibitor 100 μM): 0%
effect of proteinase inhibitor on enzyme activity (in words) [1]: no effect on endoproteolysis
Molecule: CC(C)C[C@H](NP(=O)(O)O[C@@H]1O[C@@H](C)[C@H](O)[C@@H](O)[C@H]1O)C(=O)N[C@@H](Cc1c[nH]c2ccccc12)C(=O)O [Phosphoramidon, phosphoramidon]

Molecule: CC[C@H](C)[C@H](NC(=O)CN)C(=O)NCC(=O)N[C@@H](C)C(=O)N[C@H](C(=O)N[C@@H](CC(C)C)C(=O)N[C@@H](CCCCN)C(=O)N[C@H](C(=O)N[C@@H](CC(C)C)C(=O)N[C@H](C(=O)N[C@H](C(=O)NCC(=O)N[C@@H](CC(C)C)C(=O)N1CCC[C@H]1C(=O)N[C@@H](C)C(=O)N[C@@H](CC(C)C)C(=O)N[C@H](C(=O)N[C@@H](CO)C(=O)N[C@@H](Cc1c[nH]c2ccccc12)C(=O)N[C@H](C(=O)N[C@@H](CCCCN)C(=O)N[C@@H](CCCNC(=N)N)C(=O)N[C@@H](CCCCN)C(=O)N[C@@H](CCCNC(=N)N)C(=O)N[C@@H](CCC(N)=O)C(=O)N[C@@H](CCC(N)=O)C(N)=O)[C@@H](C)CC)[C@@H](C)CC)[C@@H](C)O)[C@@H](C)O)C(C)C)C(C)C [melittin]
cleavage of the peptide by the endopeptidase (in words) [2]: do not serve as substrates
inhibition of cleavage of magainin 2 ([1]; preincubation with tenfold molar excess of peptide, substrate magainin 2): approximately 25%

Molecule: K11R: magainin 1 analogue constituting the replacement of all lysines with arginines
cleavage of the peptide by the endopeptidase (in words) [2]: effectively served as a substrate

Molecule: tosyl-L-phenylalanine chloromethyl ketone [TPCK]
% INHIBITION [1, 3]: 0%
effect of proteinase inhibitor on enzyme activity (in words) [1]: no effect on enzyme activity
